Measurements: patent US7669997B2, “Ink-jet textile printing method” (Konica Minolta Holdings, Inc., priority 2004, dated 2010)

Assay: pKa (acid dissociation constant) of dispersing agents and acids
Assay type: physicochemical
Details: acid of pretreatment solution
Description: The pKa value, as described in the present invention, is also called an acid dissociation constant, which is detailed, for example, in Buichi Sakaguchi and Keihei Ueno, Kinzoku Chelates [III] (Metal Chelates [III]), Nanko Do, which describes pKa values of acidic dissociating groups. Further, it is possible to determine the pKa of compounds, which are not described in the above reference, employing conventional methods. For example, it is possible to determine the pKa employing the method described, for example, in Jikken Kagaku Koza 5 Netsuteki Sokutei oyobi Heiko (Experimental Chemistry Lecture 5 Thermal Measurements and Equilibrium) page 460, edited by Nihon Kagaku Kai, Maruzen Co., Ltd.

## O=C(O)/C=C\C(=O)O [maleic acid]
First listed pKa value
  pKa: < 2
Second listed pKa value
  pKa: 5.8
